#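 These data come from cells grown in 96-well plates and exposed to compound for 48 hours at five concentrations. At the GI50, growth is halved.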 Active and inactive are the calls of the source. Cut-off read from the data, not from the text of the source: active = GI50 up to about 1.1 µM and inactive = higher.
# How the values were obtained:
# Test in all cases: NCI anticancer screen, dose series, 48 h
# A498 = test system: A498
# A549 = test system: A549
# ACHN = test system: ACHN
# CAKI-1 = test system: CAKI-1
# CCRF-CEM = test system: CCRF-CEM
# COLO 205 = test system: COLO 205
# DLD-1 = test system: DLD-1
# DMS-114 = test system: DMS-114
# DMS-273 = test system: DMS-273
# EKVX = test system: EKVX
# HCC 2998 = test system: HCC 2998
# HCT-116 = test system: HCT-116
# HCT-15 = test system: HCT-15
# HL-60 = test system: HL-60
# HT-29 = test system: HT-29
# IGROV-1 = test system: IGROV-1
# K562 = test system: K562
# KM-20L2 = test system: KM-20L2
# KM12 = test system: KM12
# LOX IMVI = test system: LOX IMVI
# LXFL 529 = test system: LXFL 529
# M14 = test system: M14
# MOLT-4 = test system: MOLT-4
# Malme-3M = test system: Malme-3M
# NCI-H226 = test system: NCI-H226
# NCI-H23 = test system: NCI-H23
# NCI-H460 = test system: NCI-H460
# OVCAR-4 = test system: OVCAR-4
# OVCAR-5 = test system: OVCAR-5
# OVCAR-8 = test system: OVCAR-8
# RPMI-8226 = test system: RPMI-8226
# RXF 393 = test system: RXF 393
# RXF 631 = test system: RXF 631
# SF-268 = test system: SF-268
# SF-295 = test system: SF-295
# SF-539 = test system: SF-539
# SK-MEL-28 = test system: SK-MEL-28
# SK-MEL-2 = test system: SK-MEL-2
# SK-MEL-5 = test system: SK-MEL-5
# SN12C = test system: SN12C
# SNB-19 = test system: SNB-19
# SNB-75 = test system: SNB-75
# SNB-78 = test system: SNB-78
# SR = test system: SR
# SW-620 = test system: SW-620
# TK-10 = test system: TK-10
# U-251 = test system: U-251
# UACC-257 = test system: UACC-257
# UO-31 = test system: UO-31
# XF498 = test system: XF498
# 786-0 = test system: 786-0
# HOP-62 = test system: HOP-62
# HOP-92 = test system: HOP-92
# M19-MEL = test system: M19-MEL
# NCI-H522 = test system: NCI-H522
# OVCAR-3 = test system: OVCAR-3
# SK-OV-3 = test system: SK-OV-3
# UACC-62 = test system: UACC-62
compound,measurement,setting,value
CN1CCN(c2cc(-c3cc4ccccc4o3)oc(=O)c2C#N)CC1,GI50,A498,63.8 µM (inactive)
same,GI50,A549,70.8 µM (inactive)
same,GI50,ACHN,59 µM (inactive)
same,GI50,CAKI-1,36.1 µM (inactive)
same,GI50,CCRF-CEM,71.4 µM (inactive)
same,GI50,COLO 205,66.5 µM (inactive)
same,GI50,DLD-1,76 µM (inactive)
same,GI50,DMS-114,69.2 µM (inactive)
same,GI50,DMS-273,57.9 µM (inactive)
same,GI50,EKVX,45.8 µM (inactive)
same,GI50,HCC 2998,> 100 µM (inactive)
same,GI50,HCT-116,77.1 µM (inactive)
same,GI50,HCT-15,99.8 µM
same,GI50,HL-60,43.9 µM (inactive)
same,GI50,HT-29,78 µM (inactive)
same,GI50,IGROV-1,88.9 µM (inactive)
same,GI50,K562,66.5 µM (inactive)
same,GI50,KM-20L2,89.5 µM (inactive)
same,GI50,KM12,99.3 µM (inactive)
same,GI50,LOX IMVI,48.3 µM (inactive)
same,GI50,LXFL 529,81.7 µM (inactive)
same,GI50,M14,> 100 µM (inactive)
same,GI50,MOLT-4,53 µM (inactive)
same,GI50,Malme-3M,> 100 µM (inactive)
same,GI50,NCI-H226,14.2 µM (inactive)
same,GI50,NCI-H23,> 100 µM (inactive)
same,GI50,NCI-H460,58.1 µM (inactive)
same,GI50,OVCAR-4,93.5 µM (inactive)
same,GI50,OVCAR-5,50.1 µM (inactive)
same,GI50,OVCAR-8,57.7 µM (inactive)
same,GI50,RPMI-8226,75.5 µM (inactive)
same,GI50,RXF 393,72.6 µM (inactive)
same,GI50,RXF 631,41.4 µM (inactive)
same,GI50,SF-268,51.2 µM (inactive)
same,GI50,SF-295,> 100 µM (inactive)
same,GI50,SF-539,98.4 µM (inactive)
same,GI50,SK-MEL-28,> 100 µM (inactive)
same,GI50,SK-MEL-2,> 100 µM (inactive)
same,GI50,SK-MEL-5,72.8 µM (inactive)
same,GI50,SN12C,53.3 µM (inactive)
same,GI50,SNB-19,> 100 µM (inactive)
same,GI50,SNB-75,80.4 µM (inactive)
same,GI50,SNB-78,> 100 µM (inactive)
same,GI50,SR,36.8 µM (inactive)
same,GI50,SW-620,> 100 µM (inactive)
same,GI50,TK-10,59.4 µM (inactive)
same,GI50,U-251,> 100 µM (inactive)
same,GI50,UACC-257,> 100 µM (inactive)
same,GI50,UO-31,> 100 µM (inactive)
same,GI50,XF498,> 100 µM (inactive)
COc1ccc(O)c(C(=O)CCC(=O)O)c1,GI50,786-0,> 100 µM (inactive)
same,GI50,A498,> 100 µM (inactive)
same,GI50,A549,> 100 µM (inactive)
same,GI50,ACHN,> 100 µM (inactive)
same,GI50,CCRF-CEM,> 100 µM (inactive)
same,GI50,COLO 205,> 100 µM (inactive)
same,GI50,DLD-1,> 100 µM (inactive)
same,GI50,DMS-114,> 100 µM (inactive)
same,GI50,DMS-273,> 100 µM (inactive)
same,GI50,EKVX,> 100 µM (inactive)
same,GI50,HCC 2998,> 100 µM (inactive)
same,GI50,HCT-15,> 100 µM
same,GI50,HL-60,> 100 µM (inactive)
same,GI50,HOP-62,> 10 µM (inactive)
same,GI50,HOP-92,> 100 µM (inactive)
same,GI50,HT-29,> 100 µM (inactive)
same,GI50,IGROV-1,> 100 µM (inactive)
same,GI50,K562,> 100 µM (inactive)
same,GI50,KM12,> 100 µM (inactive)
same,GI50,LOX IMVI,> 100 µM (inactive)
same,GI50,LXFL 529,> 100 µM (inactive)
same,GI50,M14,> 10 µM (inactive)
same,GI50,M19-MEL,> 100 µM (inactive)
same,GI50,MOLT-4,> 100 µM (inactive)
same,GI50,Malme-3M,> 100 µM (inactive)
same,GI50,NCI-H226,> 100 µM (inactive)
same,GI50,NCI-H23,> 100 µM (inactive)
same,GI50,NCI-H460,> 100 µM (inactive)
same,GI50,NCI-H522,> 100 µM (inactive)
same,GI50,OVCAR-3,> 10 µM (inactive)
same,GI50,OVCAR-4,> 100 µM (inactive)
same,GI50,OVCAR-5,> 100 µM (inactive)
same,GI50,OVCAR-8,> 100 µM (inactive)
same,GI50,RPMI-8226,> 100 µM (inactive)
same,GI50,RXF 393,> 100 µM (inactive)
same,GI50,RXF 631,> 100 µM (inactive)
same,GI50,SF-268,> 100 µM (inactive)
same,GI50,SF-295,> 100 µM (inactive)
same,GI50,SF-539,> 100 µM (inactive)
same,GI50,SK-MEL-28,> 100 µM (inactive)
same,GI50,SK-MEL-2,> 100 µM (inactive)
same,GI50,SK-MEL-5,> 100 µM (inactive)
same,GI50,SK-OV-3,> 100 µM (inactive)
same,GI50,SN12C,> 100 µM (inactive)
same,GI50,SNB-19,> 100 µM (inactive)
same,GI50,SNB-75,> 100 µM (inactive)
same,GI50,SNB-78,> 100 µM (inactive)
same,GI50,SR,> 100 µM (inactive)
same,GI50,SW-620,> 100 µM (inactive)
same,GI50,TK-10,> 100 µM (inactive)
same,GI50,U-251,> 100 µM (inactive)
same,GI50,UACC-257,15.6 µM (inactive)
same,GI50,UACC-62,> 100 µM (inactive)
same,GI50,UO-31,> 100 µM (inactive)
same,GI50,XF498,> 100 µM (inactive)

# From ChEMBL document CHEMBL1201862, “PubChem BioAssay data set” (2004)
